Source: article PMC9271885 (eBioMedicine, 2022)
Several values for one entry are separate records, joined by “and”; a condition that tells them apart may be missing. Equal values may be shown once. Read-outs that look alike come from different tables or passages of the source.

Assays:
[1] = test system: SARS-CoV-2; assay: microbe, parasite or virus in culture; format: cell-based
[2] = test system: SARS-CoV-2; assay: Lung histopathological changes in infected hamsters (cumulative score, grade of severity); format: in vivo, Syrian hamsters
Procedure: The anatomo-histological study was implemented as previously described.[24]^,[26] Briefly, lungs were collected after intratracheal instillation of 4% (w/v) formaldehyde solution, and then fixed 72h at room temperature with a 4% (w/v) formaldehyde solution before being embedded in paraffin. Tissue sections of 3.5µm were stained with hematoxylin-eosin (H&E) and blindly analyzed by a certified veterinary pathologist. Microscopic examination was done using a Nikon Eclipse E400 microscope. Different anatomic compartments were examined (1) for bronchial and alveolar walls, a score of 0 to 4 was assigned based on severity of inflammation; (2) regarding alveoli, a score of 0 to 2 was assigned based on presence and severity of hemorrhagic necrosis; (3) regarding vessel changes (leucocytic accumulation in vascular wall or in endothelial compartment), absence or presence was scored 0 or 1 respectively. A cumulative score was then calculated and assigned to a grade of severity (see Supplementary Table 4).
Groups of 4 hamsters, intranasally infected with 10^4 TCID50 of SARS-CoV-2, were orally treated at a dose of 500mg/kg/day BID for 4 days (0, 1, 2 and 3 dpi) (Figure 4a). Untreated hamsters (group of 4 animals) received the suspension vehicle BID. Animals were sacrificed at 5 dpi and a cumulative score from 0 to 10 (taking into account severity of inflammation, alveolar hemorrhagic necrosis and vessel lesions) was calculated and then assigned to a grade of severity (0=normal; 1=mild; 2=moderate; 3=marked and 4=severe; details in Supplementary Data 4).

[3] = test system: SARS-CoV-2; format: cell-based; details: bronchial human airway epithelium
[4] = test system: SARS-CoV-2; assay: microbe, parasite or virus in culture; format: cell-based; details: Severe acute respiratory syndrome coronavirus 2, 48 h; Caco-2 cells, viral RNA, 2 days incubation
[5] = in vitro
Procedure: One day prior to infection, 96-well culture plates were seeded with 5×10^4 Vero E6 or Caco-2 cells in 100µL assay medium per well (containing 2.5% FCS). […] After 15min, a preset amount of virus diluted in 25µL of assay medium was added to the wells. This quantity of virus was calibrated so that the viral replication was still in the exponential growth phase for the readout, as previously described, [28], [29] which correspond here to 150 TCID50 per well. Four “cell control” wells were supplemented with 50µL of assay medium without any compounds or virus. On each culture plate, a positive control compound (Remdesivir, BLDpharm) was added in duplicate with eight 2-fold serial dilutions (0.16µM to 20µM). Plates were incubated for 2 days at 37°C prior to quantification of the viral genome by real-time RT-PCR as described below. For the determination of the 50% cytotoxic concentrations (CC50; compound concentration required to reduce by 50% cell viability), the same culture conditions were used, without addition of the virus, and cell viability was measured using CellTiter Blue® (Promega) following manufacturer's instructions. EC50, EC90 and CC50 were determined using logarithmic interpolation as previously described.[28] The selectivity index of the compounds was calculated as the ratio of the CC50 over the EC50.

[6] = Population pharmacokinetic modelling and simulation of TIZ in hamster (LC-MS/MS, NONMEM); details: in vivo
Procedure: At each time point, approximate 80µl of blood were collected from the submandibular vein or the saphenous vein of hamsters. All samples were transferred into commercial K2-EDTA tubes, placed on ice until processed for plasma extraction by centrifugation and stored at −70°C before analysis. A LC-MS/MS-AI Triple Quad 5500 was used to determine TIZ concentrations. The mobile phase was a gradient of 0.1% formic acid (FA) in water and 0.1% of FA in acetonitrile (ACN), the column was an ACQUITY UPLC HSS T3 1.8 μm 2.1 × 50mm. For mass spectrometry a positive electrospray ionization was used, and a selected reaction monitoring was set to select TIZ: [M+H]+m/z: 266.0 / 121.2 and dexamethasone: [M+H]+m/z: 393.0 / 373.1 as internal standard.
Pharmacokinetic profiles of TIZ in hamster were analyzed using a nonlinear mixed-effects modelling approach. The population pharmacokinetics analysis was performed using NONMEM® version 7.4. The final pharmacokinetic model was established by evaluating one-, two-, and three-compartment disposition models, as well as several different absorption models (i.e. first-order absorption, first-order absorption with lag time, and transit absorption models). The inter-individual variabilities of pharmacokinetic parameters were implemented as a log-normal distribution and the residual unexplained variability was modelled as an exponential error.

[7] = test system: SARS-CoV-2; assay: Hamster model of SARS-CoV-2 infection, oral NTZ treatment (lung infectious titers, lung viral RNA yields, plasma viral loads); format: in vivo, Syrian hamsters; parameters: Lung Infectious titers / Plasmatic viral RNA yields / Lung Viral RNA yields: unit not given here; details: for Lung Infectious titers / Lung Viral RNA yields / Plasmatic viral RNA yields: inoculum 104 TCID50, Figure 3, individual animals
[8] = cited from earlier work
[9] = Severe acute respiratory syndrome coronavirus 2, Vero C1008, 48 h, Vero E6 cells, viral RNA, 2 days incubation
[10] = Severe acute respiratory syndrome coronavirus 2, Vero C1008, 48 h, Vero E6 cells, viral RNA, 2 days incubation, read-out: EC50
[11] = nitazoxanide 500mg/kg/day per os BID, day of sacrifice 5, individual animals
[12] = NTZ 500mg/kg/day BID oral for 3 days, 3 dpi
[13] = NTZ 500mg/kg/day BID oral for 4 days, 5 dpi
[14] = NTZ 750mg/kg/day TID oral for 3 days, 3 dpi
[15] = Nitazoxanide per os 500mg/kg/day BID, sacrifice day 3
[16] = Nitazoxanide per os 500mg/kg/day BID, sacrifice day 5
[17] = Nitazoxanide per os 750mg/kg/day BID, sacrifice day 3

For CC(=O)Oc1ccccc1C(=O)Nc1ncc([N+](=O)[O-])s1 [NTZ, Nitazoxanide], the EC90 [1, 9] was 10.3 µM, the EC50 [1, 10] was 3.19 µM and the EC50 ([1]; Vero E6 cells, viral RNA, 2 days incubation, read-out: EC50) was < 5 µM. For the same compound, the “histopathological cumulative scores in lungs vs untreated” value ([2]; NTZ 500mg/kg/day BID oral for 4 days, sacrificed at 5 dpi) was “no significant difference”, the “Histologic scores Bronchitis” value [2, 11] was 4 and 3 and the “Histologic scores Endothelitis / Vasculitis” value [2, 11] was 1. The “Histologic scores Hemorrhagic necrosis” value [2, 11] was 0 and 1, the “Histologic scores Interstitial pneumonia” value [2, 11] was 4 and 3 and the “Histologic scores Total score” value [2, 11] was 9 and 10 and 8 and 7. The “Histologic scores Grade” value ([2]; nitazoxanide 500mg/kg/day per os BID, day of sacrifice 5, individual animals, grade printed as number) was 4 and 3, the “effective NTZ concentrations ex vivo” value [3] was 5 µM and the “effective NTZ concentrations ex vivo” value ([3]; conversion of 5µM) was 1.54 µg/mL. The EC90 [4] was 1750 nM, the CC50 at 2 days ([5]; African green monkey, CC50, Vero E6 cells, no virus) was > 60 µM and the CC50 at 2 days ([5]; human) was 9.15 µM. For the same compound, the “V/F volume of distribution of the central compartment, population estimate (%RSE)” value [6] was 0.128 (48.3) L, the “CL/F oral clearance, population estimate (%RSE)” value ([6]; po) was 0.651 (11.9) L/h and the “infectious titers in clarified lung homogenates vs untreated animals” value (from here on “infectious titers … vs untreated animals”) [7, 12] was “no significant differences”. The “viral RNA yields in clarified lung homogenates vs untreated animals” value [7, 12] was “no significant differences”, the “viral RNA yields in plasma vs untreated animals” value [7, 12] was “No significant difference” and the “infectious titers … vs untreated animals” value [7, 13] was “no significant reduction”. The “viral RNA yields in clarified lung homogenates vs untreated animals” value [7, 13] was “no significant reduction”, the “viral RNA yields in plasma vs untreated animals” value [7, 13] was “no significant reduction” and the “infectious titers … vs untreated animals” value [7, 14] was “no significant differences”. For the same compound, the “viral RNA yields in clarified lung homogenates vs untreated animals” value [7, 14] was “no significant differences”, the “viral RNA yields in plasma vs untreated animals” value [7, 14] was “No significant difference” and the “Lung Infectious titers” value [7, 15] was 8.038 and 8.250 and 7.442 and 7.772 and 7.773 and 7.077. For the same compound, the “Lung Viral RNA yields” value [7, 15] was 8.641, the “Plasmatic viral RNA yields” value [7, 15] was 5.553 and 4.360 and 4.045 and 4.724 and 5.043 and 5.205 and the “Lung Viral RNA yields” value [7, 16] was 7.115 and 6.597 and 6.910. For the same compound, the “Plasmatic viral RNA yields” value [7, 16] was 3.987 and 3.600 and 3.442 and 4.487 and 3.519, the “Lung Infectious titers” value ([7]; Nitazoxanide per os 500mg/kg/day BID, sacrifice day 5, § : considered at 60 TCID50/mL (detection threshold)) was ≤ 2.486 § and 4.354 and 4.491 and 5.007 and 3.086 and the “Lung Infectious titers” value [7, 17] was 7.345 and 6.869 and 7.090 and 6.311 and 7.103 and 7.069. For the same compound, the “Lung Viral RNA yields” value [7, 17] was 8.692 and the “Plasmatic viral RNA yields” value [7, 17] was 3.193 and 2.818 and 5.191 and 4.129 and 4.008 and 4.113.
Work on O=C(Nc1ncc([N+](=O)[O-])s1)c1ccccc1O [TIZ, tizoxanide] yielded an EC90 [1, 9] of 9.27 µM, an EC50 [1, 10] of 7.48 µM and an EC50 ([1]; Severe acute respiratory syndrome coronavirus 2, Vero C1008, read-out: EC50 expressed in µg/mL) of 1.98 µg/mL. For the same compound, the “Selectivity Index (SI=CC50/EC50)” value ([1]; Vero E6 cells) was “higher than 13.3”, the CC50 at 2 days ([5]; African green monkey, CC50) was > 60 µM and the Tmax ([6]; Syrian, po) was 16.6 min. The half-life ([6]; Syrian, po) was 48 min and the “bound to plasma proteins” value [8] was 99%.
